Test results: ChEMBL document CHEMBL1201862, “PubChem BioAssay data set” (2004)
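48-hour exposure; five concentrations; linearly interpolated endpoints. Abbreviation: GI50, concentration required for 50% inhibition of growth.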 Calls of active or inactive are those of the source. No stated cut-off is given here; in the data, active = GI50 up to about 1.1 µM and inactive = higher.

Key:
Assay in all cases: NCI anticancer screen, dose series, 48 h
786-0 = test system: 786-0
A549 = test system: A549
CAKI-1 = test system: CAKI-1
DLD-1 = test system: DLD-1
HL-60 = test system: HL-60
IGROV-1 = test system: IGROV-1
LOX IMVI = test system: LOX IMVI
MOLT-4 = test system: MOLT-4
NCI-H226 = test system: NCI-H226
SF-539 = test system: SF-539
SK-MEL-2 = test system: SK-MEL-2
SK-OV-3 = test system: SK-OV-3
SN12C = test system: SN12C
SW-620 = test system: SW-620
UACC-62 = test system: UACC-62
SK-MEL-28 = test system: SK-MEL-28

Row | SMILES | GI50 (786-0) | GI50 (A549) | GI50 (CAKI-1) | GI50 (DLD-1) | GI50 (HL-60) | GI50 (IGROV-1) | GI50 (LOX IMVI) | GI50 (MOLT-4) | GI50 (NCI-H226) | GI50 (SF-539) | GI50 (SK-MEL-2) | GI50 (SK-OV-3) | GI50 (SN12C) | GI50 (SW-620) | GI50 (UACC-62) | GI50 (SK-MEL-28)
1 | COc1ccc(NC(=O)CC/C(CC(=O)c2ccco2)=N/NC(N)=S)cc1 | > 100 µM (inactive) | > 100 µM (inactive) | > 100 µM (inactive) | > 100 µM (inactive) | > 100 µM (inactive) | > 100 µM (inactive) | > 100 µM (inactive) | > 100 µM (inactive) | > 100 µM (inactive) | > 100 µM (inactive) | > 100 µM (inactive) | > 100 µM (inactive) | > 100 µM (inactive) | > 100 µM (inactive) | > 100 µM (inactive) | –
2 | COc1ccc2nc3ccccc3c(NCCCCCCN(C)CCCl)c2c1 | 0.177 µM (active) | 0.297 µM (active) | 0.314 µM (active) | 0.164 µM (active) | 0.0312 µM (active) | 0.163 µM (active) | 0.162 µM (active) | < 0.01 µM (active) | 0.104 µM (active) | 0.474 µM (active) | 0.293 µM (active) | 0.664 µM (active) | 0.0689 µM (active) | 0.0583 µM (active) | 0.307 µM (active) | 0.986 µM (active)
3 | CCOC(=O)C1CC(=O)C=C2CCCCC21 (stereo not given) | > 100 µM (inactive) | > 100 µM (inactive) | > 100 µM (inactive) | > 100 µM (inactive) | > 100 µM (inactive) | > 100 µM (inactive) | > 100 µM (inactive) | > 100 µM (inactive) | – | > 100 µM (inactive) | > 100 µM (inactive) | > 100 µM (inactive) | > 100 µM (inactive) | > 100 µM (inactive) | > 100 µM (inactive) | > 100 µM (inactive)
4 | CCCCCCCCC[C@@H]1CC(=O)OCC2OC(O[C@H](CCCCCCCCC)CC(=O)OCC3OC(O[C@H](CCCCCCCCC)CC(=O)OCC4OC(O1)C(O)C(O)C4O)C(O)C(O)C3O)C(O)C(O)C2O (stereo not given in full) | 0.957 µM (active) | 14.7 µM (inactive) | 3.21 µM (inactive) | 14 µM (inactive) | 14.3 µM (inactive) | 14.5 µM (inactive) | 3.52 µM (inactive) | 6.22 µM (inactive) | 3.9 µM (inactive) | 10.3 µM (inactive) | 8.67 µM (inactive) | 13.4 µM (inactive) | 13.7 µM (inactive) | 5.83 µM (inactive) | 14.9 µM (inactive) | 6.62 µM (inactive)
5 | CC[C@@H]1OC2(C)CC(S(=O)(=O)c3ccccc3O)CC1O2 (stereo not given in full) | > 100 µM (inactive) | > 100 µM (inactive) | < 0.01 µM (active) | > 100 µM (inactive) | > 100 µM (inactive) | > 100 µM (inactive) | – | > 100 µM (inactive) | > 100 µM (inactive) | > 100 µM (inactive) | > 100 µM (inactive) | > 100 µM (inactive) | > 100 µM (inactive) | > 100 µM (inactive) | > 100 µM (inactive) | > 100 µM (inactive)
6 | CC1(C)CC(=O)C(C(=O)Nc2cccs2)=C(O)C1 | 49.9 µM (inactive) | 32.1 µM (inactive) | 14.6 µM (inactive) | 39.5 µM (inactive) | 24.1 µM (inactive) | 32.9 µM (inactive) | 32.3 µM (inactive) | 28 µM (inactive) | 23.4 µM (inactive) | 36.2 µM (inactive) | 35.9 µM (inactive) | 62.4 µM (inactive) | 39.4 µM (inactive) | 38.8 µM (inactive) | 29.2 µM (inactive) | > 100 µM (inactive)
7 | Cc1ccc(Nc2nc3c(s2)C(=O)c2ccccc2C3=O)c(C)c1 | 17.5 µM (inactive) | 16.6 µM (inactive) | 14.2 µM (inactive) | 15.1 µM (inactive) | 2.19 µM (inactive) | 16.4 µM (inactive) | 13.3 µM (inactive) | 3.94 µM (inactive) | 12.1 µM (inactive) | 17.5 µM (inactive) | 13.7 µM (inactive) | 29.6 µM (inactive) | 16.9 µM (inactive) | 20 µM (inactive) | 13.8 µM (inactive) | 16.8 µM (inactive)
8 | COc1ccc2c(c1)Oc1cc(O)ccc1[C@H]2c1ccccc1C(=O)NC(C)c1ccccc1 (stereo not given in full) | 17.9 µM (inactive) | 13.2 µM (inactive) | 17.3 µM (inactive) | 18.2 µM (inactive) | 14.4 µM (inactive) | 15.1 µM (inactive) | 16.9 µM (inactive) | 9.73 µM (inactive) | 20.7 µM (inactive) | 16.1 µM (inactive) | 21.5 µM (inactive) | 21 µM (inactive) | 16.3 µM (inactive) | 17.1 µM (inactive) | 12.1 µM (inactive) | 17.7 µM (inactive)
